The source of these data is US20190030018A1 (Celgene Corporation, priority 2017, published 2019).

For one test, the system named is OCI-AML-2. The experiment in a line: In vitro combination studies, CellTitre-Glo cell viability.
In another test the test system is ML-2. Described as above.
A further test concerns AML cell lines. The experiment in a line: In vitro combination studies, CellTitre-Glo cell viability (Bliss, Loewe, HSA, CES synergy analysis). The following applies: FLT3 and JAK inhibitors in combination with Compound 1 in MOLM-13 and NOMO-1 cell lines.
The test system of another test is MOLM-13. The test is described as follows: In vitro combination studies, CellTitre-Glo cell viability.
The next test concerns OCT-AML-3. The test is described as above.
Another test concerns MV-4-11. The test is described as above.
A further test has as its system KG-1. Described as above.
The test system of another test is HNT-34. Described as above.
Another test deals with HL-60. The test is described as above.
The next test relates to F-36-P. Described as above.
The next test concerns NOMO-1. The test is described as above.
The mark [1] stands for this setting: OCI-AML-2, in combination with Compound 1.
[2] abbreviates: ML-2, in combination with Compound 1.
Setting [3] is: MOLM-13, in combination with Compound 1.
The mark [4] stands for this setting: OCI-AML-3, in combination with Compound 1.
[5] abbreviates: MV-4-11, in combination with Compound 1.
Where [6] appears, read: KG-1, in combination with Compound 1.
[7] abbreviates: HNT-34, in combination with Compound 1.
The mark [8] stands for this setting: HL-60, in combination with Compound 1.
Setting [9] is: F-36-P, in combination with Compound 1.
Where [10] appears, read: NOMO-1, in combination with Compound 1.

Read-outs that look alike come from different tables or passages of the source.

Protocol for AML cell lines: where EA and EB represent the effect of each single agent and EAB represents the effect of the combination at a given dose.
All data was analyzed using the CES equation:
In cases where single agent dose response fit a Hill slope, the CES analysis was compared to Loewe, Bliss, and HSA models.

On to `CC1(COc2ccc3c(c2)ncn3-c2ccc3cccc(N4CCC(N)CC4)c3n2)COC1` [Crenolanib], for which the “Synergy analysis for combinations with Compound 1” value (from here on “Synergy analysis for combinations”) in the test with OCI-AML-2 (setting [1]) is recorded as “No”; in the test with ML-2 (setting [2]), “No”; in the test on MOLM-13 (setting [3]), “Yes”; in the test with OCT-AML-3 (setting [4]), “No”; with MV-4-11 (setting [5]), “Yes”; in the test with KG-1 (setting [6]), “No”. For the same compound, the “Synergy analysis for combinations” value in the test on HNT-34 (setting [7]), with HL-60 (setting [8]), in the test on F-36-P (setting [9]) and in the test with NOMO-1 (setting [10]) was “No” in each case. For the same compound, the Synergy entry with AML cell lines is given as “Yes”.
`CC[C@@](C)(Nc1ccnc(-c2c[nH]c3ncccc23)n1)C(=O)NCC(F)(F)F` [Decernotinib]: the Synergy entry in the test on AML cell lines is on record as “Yes”.
As to `O=C(Nc1nc2cccc(-c3ccc(CN4CCS(=O)(=O)CC4)cc3)n2n1)C1CC1` [Filgotinib], the Synergy result with AML cell lines was “Yes”.
Take `CN(C)C(=N)N=C(N)N` [Metformin]: the “Synergy analysis for combinations” value in the test with OCI-AML-2 (setting [1]), with ML-2 (setting [2]), with MOLM-13 (setting [3]), in the test on OCT-AML-3 (setting [4]), in the test with MV-4-11 (setting [5]) and with KG-1 (setting [6]) was “No” each time. The “Synergy analysis for combinations” value in the test on HNT-34 (setting [7]), with HL-60 (setting [8]), in the test with F-36-P (setting [9]) and with NOMO-1 (setting [10]) was “No” in each case.
Take `C[C@@]12OC(=O)[C@]1([C@@H](O)[C@@H]1C=CCCC1)NC(=O)[C@@H]2CCCl` [NPI-0052]: the “Synergy analysis for combinations” value with OCI-AML-2, in the test with ML-2, in the test on MOLM-13, with OCT-AML-3, in the test with MV-4-11 and with KG-1 was “No” in each case. In addition, the “Synergy analysis for combinations” value in the test on HNT-34, with HL-60, in the test on F-36-P and with NOMO-1 was “No” in each case.
As to `COC(=O)C[C@](O)(CCCC(C)(C)O)C(=O)O[C@@H]1C(OC)=C[C@]23CCCN2CCc2cc4c(cc2[C@H]13)OCO4` [Omacetaxine], the “Synergy analysis for combinations” value in the test with OCI-AML-2 (setting [1]), in the test on ML-2 (setting [2]), with MOLM-13 (setting [3]), with OCT-AML-3 (setting [4]), in the test with MV-4-11 (setting [5]) and with KG-1 (setting [6]) was “No” each time. Also, the “Synergy analysis for combinations” value in the test with HNT-34 (setting [7]), with HL-60 (setting [8]), in the test with F-36-P (setting [9]) and in the test with NOMO-1 (setting [10]) was “No” throughout.
On to `O=C(/C=C/c1ccccc1)NC(NC(=S)Nc1cccc2cccnc12)C(Cl)(Cl)Cl` (stereo not shown) [Salubrinol], for which the “Synergy analysis for combinations” value in the test on OCI-AML-2 (setting [1]), in the test with ML-2 (setting [2]), in the test on MOLM-13 (setting [3]), in the test with OCT-AML-3 (setting [4]), in the test on MV-4-11 (setting [5]) and in the test on KG-1 (setting [6]) was “No” throughout. For the same compound, the “Synergy analysis for combinations” value in the test on HNT-34 (setting [7]), in the test on HL-60 (setting [8]), in the test on F-36-P (setting [9]) and with NOMO-1 (setting [10]) was “No” each time.
In the case of `COC(=O)[C@H]1[C@@H](O)[C@@]2(O)c3c(OC)cc(O[C@@H]4O[C@@H]([C@H](O)CO)CO[C@H]4OC)cc3O[C@@]2(c2ccc(OC)cc2)[C@@H]1c1ccccc1` [Silvestrol], the “Synergy analysis for combinations” value with OCI-AML-2 (setting [1]), with ML-2 (setting [2]), with MOLM-13 (setting [3]), in the test with OCT-AML-3 (setting [4]), with MV-4-11 (setting [5]) and in the test on KG-1 (setting [6]) was “No” throughout. In addition, the “Synergy analysis for combinations” value with HNT-34 (setting [7]), with HL-60 (setting [8]), with F-36-P (setting [9]) and in the test with NOMO-1 (setting [10]) was “No” in each case.
With `C/C=C(/C)C(=O)O[C@H]1C(C)=C2[C@H]([C@@H]1OC(=O)CCCCCCC)[C@@](C)(OC(C)=O)C[C@H](OC(=O)CCC)[C@@]1(O)[C@H]2OC(=O)[C@@]1(C)O` [Thapsigargin], the “Synergy analysis for combinations” value in the test on OCI-AML-2 (setting [1]), in the test with ML-2 (setting [2]), in the test with MOLM-13 (setting [3]), in the test on OCT-AML-3 (setting [4]), in the test on MV-4-11 (setting [5]) and in the test with KG-1 (setting [6]) was “No” in each case. Moreover, the “Synergy analysis for combinations” value in the test with HNT-34 (setting [7]), in the test with HL-60 (setting [8]), in the test on F-36-P (setting [9]) and with NOMO-1 (setting [10]) was “No” each time.
On to `CC(C)[C@]12O[C@H]1[C@@H]1O[C@]13[C@]1(O[C@H]1C[C@H]1C4=C(CC[C@@]13C)C(=O)OC4)[C@@H]2O` [Triptolide], for which the “Synergy analysis for combinations” value in the test with OCI-AML-2 (setting [1]) is listed as “No”; in the test with ML-2 (setting [2]), “No”; in the test on MOLM-13 (setting [3]) it was “Yes”; with OCT-AML-3 (setting [4]) it was “No”; in the test on MV-4-11 (setting [5]) it was “No”; with KG-1 (setting [6]), “No”. Also, the “Synergy analysis for combinations” value in the test with HNT-34 (setting [7]), in the test on HL-60 (setting [8]), with F-36-P (setting [9]) and in the test on NOMO-1 (setting [10]) was “No” throughout.
Take `C[C@H](NC(=O)Cc1cc(F)cc(F)c1)C(=O)N[C@@H]1C(=O)N(C)c2ccccc2-c2ccccc21` [YO-01027]: the “Synergy analysis for combinations” value in the test on OCI-AML-2 (setting [1]), in the test on ML-2 (setting [2]), with MOLM-13 (setting [3]), in the test on OCT-AML-3 (setting [4]), in the test on MV-4-11 (setting [5]) and with KG-1 (setting [6]) was “No” throughout. Also, the “Synergy analysis for combinations” value with HNT-34 (setting [7]), in the test with HL-60 (setting [8]), with F-36-P (setting [9]) and in the test on NOMO-1 (setting [10]) was “No” each time.
With `C1=C/COCc2cc(ccc2OCCN2CCCC2)Nc2nccc(n2)-c2cccc(c2)COC/1` [pacritinib, reference compound], the Synergy entry with AML cell lines was “Yes”.
The same measure, in the same setting: the same measure for `CC(C)(C)c1cc(NC(=O)Nc2ccc(-c3cn4c(n3)sc3cc(OCCN5CCOCC5)ccc34)cc2)no1` [quizartinib, reference compound]: “Yes”.
For “chloro-N,N-diethyl-5-((4-(2-(4-(3-methylureido)phenyl)pyridin-4-yl)pyrimidin-2-yl)amino)benzenesulfonamide [compound Ii, reference compound]”, the “Synergy analysis for combinations” value in the test with OCI-AML-2 (setting [1]) is “Yes”; with ML-2 (setting [2]), “No”; in the test on MOLM-13 (setting [3]) it was “Yes”; with OCT-AML-3 (setting [4]) it was “Yes”; with MV-4-11 (setting [5]), “Yes”; in the test with KG-1 (setting [6]) it was “No”. Moreover, the “Synergy analysis for combinations” value in the test on HNT-34 (setting [7]) is given as “No”; with HL-60 (setting [8]) it was “No”; in the test on F-36-P (setting [9]), “Yes”; in the test on NOMO-1 (setting [10]), “Yes”.
On to pladienolide B [reference compound], for which the “Synergy analysis for combinations” value is “Yes” in the test on OCI-AML-2 (setting [1]); “No” in the test on ML-2 (setting [2]); “Yes” in the test on MOLM-13 (setting [3]); “No” in the test with OCT-AML-3 (setting [4]); “Yes” with MV-4-11 (setting [5]); “No” in the test on KG-1 (setting [6]). Further, the “Synergy analysis for combinations” value is on record as “No” with HNT-34 (setting [7]), “No” in the test with HL-60 (setting [8]), “Yes” in the test with F-36-P (setting [9]) and “Yes” in the test with NOMO-1 (setting [10]).
